Test results published in PMC5548886 (Cancer Medicine, 2017).
pEC50: −log10 of the molar value. Where two headings read alike, the source gives them in different places.

Columns and labels:
BRAF V600E = conditions: read-out: EC50 for BRAF V600E; preclinical data; cited from earlier work
[1] = test system: patients with locally advanced or metastatic melanoma; test: Phase I dose-escalation: safety, adverse events (NCI CTCAE v3.0), DLT and MTD; format: in vivo
Source text: This study was an open‐label, multicenter, nonrandomized, phase I/II, dose‐escalation study of orally administered RAF265. […] The study was comprised of two phases: A dose escalation phase and an expansion phase at the MTD/RP2D. The dose‐escalation phase was guided by pharmacokinetics (PK), pharmacodynamics (PD) and safety. […] In the expansion phase (cohort 7.1) the PK run in was omitted and patients received a loading dose in 3 divided doses followed by lower daily dose beginning on Cycle 1, Day 2. The cycle length was 28 days in all cohorts. Here, we report the dose escalation and expansion arm investigating a continuous treatment regimen.
Medical history and demographics were collected at screening. The safety of study medication was evaluated on the basis of rate, type, severity graded in accordance with NCI CTCAE version 3.0. Safety assessments consisted of collecting all AEs, serious adverse events (SAEs) with their severity and relationship with study drug, and pregnancies. They included the regular monitoring of hematology, blood chemistry and urine performed at the study center/central laboratory and regular assessments of vital signs, physical condition, body weight, performance status, and cardiac data (i.e. electrocardiogram (ECG)/echocardiogram (ECHO)). Abnormalities in clinical laboratory tests that were considered clinically significant by the Investigator were recorded on the AE CRF. Dose‐limiting toxicities (DLTs) were defined for various organ systems and other clinically relevant adverse effects (Table S1). The DLT window was the first cycle while AEs were captured for the entire course of treatment. Evaluation of tumor response was conducted at Baseline, and at the end of every 8 weeks of treatment. Response was assessed using the Response Evaluation Criteria in Solid Tumors (RECIST) 1.0. A complete or partial response (CR or PR) was confirmed at least 28 days after the first assessment that documented response and every two cycles thereafter until disease progression, initiation of confounding anticancer therapy, death, loss to follow‐up, withdrawal of consent, or study termination. All patients discontinuing from the study for progressive disease were to have their disease progression documented by radiologic evaluation.
The MTD was defined as the dose level with 16–33.3% probability of a DLT. […] Descriptive statistic were used for the analysis of PK, biomarker analysis and tumor response data.

[2] = test system: tumor metabolic activity (SUV); test: Metabolic tumor response by 18[F]-FDG-PET; format: in vivo, human
Protocol: (§1) Pharmacodynamic markers were examined using peripheral blood samples, tumor and nevi biopsies (when available) and tumor imaging. BRAF mutation status was determined by Sanger sequencing. Pharmacodynamic markers analyzed, in available tumor/nevus samples obtained before treatment or archival tissue and during treatment on cycle 1, day 8 or day 15, including cytoplasmic p‐MEK, p‐ERK, BIM, c‐KIT, p‐AKT473, pS6 and PTEN, and nuclear p‐ERK, Ki‐67, PARP, cyclin D1, MITF, p27, and p53. Biomarker expression was determined by calculating the percentage of change in the H‐score (14) between on‐treatment and fresh/archival pretreatment specimens. Blood levels of VEGFR‐2 and were assessed before and at multiple time points while on treatment using enzyme‐linked immunosorbent assay (ELISA). […] Changes in standard uptake value (SUV) were determined by a blinded, independent central imaging review panel. Complete metabolic response (CMR) was complete resolution of tumor FDG‐PET uptake so SUV is the same as background. Partial metabolic response (PMR) decrease in sum of the tumor SUV of ≥25% from the baseline scan. Progressive metabolic disease (PMD) was defined as an increase in tumor SUV of ≥25% from the baseline scan, or the appearance of new FDG‐PET uptake in metastatic lesions. Stable metabolic disease (SMD) was defined as a change in tumor SUV between the PMR and PMD criteria.

Ki-67 = test system: Ki-67
Protocol: as §1

[3] = test system: soluble VEGFR-2 (sVEGFR-2); test: Blood level by ELISA; format: in vivo, human; conditions: all dose levels, over time
Protocol: as §1

## Cn1c(Nc2ccc(C(F)(F)F)cc2)nc2cc(Oc3ccnc(-c4ncc(C(F)(F)F)[nH]4)c3)ccc21 [RAF265]
BRAF V600E
  pEC50: […]
[1]; 5 deaths, none deemed treatment related
  deaths within 28 days of last administration of the study drug: 6.5%
[1]; human, in vivo
  AEs requiring dose adjustment or interruption, patients: 39%
  Abdominal pain (treatment-emergent grade 3/4): 1 (2.4%) n (%)
  Angina unstable (treatment-emergent grade 3/4): 1 (2.4%) n (%)
  Ataxia (treatment-emergent grade 3/4): 1 (2.4%) n (%)
  Basal cell carcinoma (treatment-emergent grade 3/4): 1 (2.4%) n (%)
  Blood lactic acid increased (treatment-emergent grade 3/4): 1 (2.4%) n (%)
  Cutaneous lupus erythematosus (treatment-emergent grade 3/4): 1 (2.4%) n (%)
  Decreased appetite (treatment-emergent grade 3/4): 2 (4.8%) n (%)
  Diarrhea (treatment-emergent grade 3/4): 4 (9.8%) n (%)
  Dyspnea (treatment-emergent grade 3/4): 1 (2.4%) n (%)
  Fatigue (treatment-emergent grade 3/4): 6 (14.4%) n (%)
  Hematological (treatment-emergent grade 3/4): 12 (29.2%) n (%)
  Hypertension (treatment-emergent grade 3/4): 4 (9.8%) n (%)
  Hypophosphatemia (treatment-emergent grade 3/4): 1 (2.4%) n (%)
  Lipase increased (treatment-emergent grade 3/4): 2 (4.8%) n (%)
  Neutropenia (treatment-emergent grade 3/4): 4 (9.8%) n (%)
  Pancytopenia (treatment-emergent grade 3/4): 1 (2.4%) n (%)
  Pulmonary embolism (treatment-emergent grade 3/4): 2 (4.8%) n (%)
  SAE constipation: 2.6%
  SAE dehydration: 5.2%
  SAE pulmonary embolism: 6.5%
  SAE retinopathy: 2.6%
  SAE thrombocytopenia: 3.9%
  Squamous cell carcinoma (treatment-emergent grade 3/4): 2 (4.8%) n (%)
  Thrombocytopenia (treatment-emergent grade 3/4): 7 (17.1%) n (%)
  Total (n), treatment-emergent grade 3/4 events: 41 (53.2%) n (%)
  Vitreous floaters (treatment-emergent grade 3/4): 2 (4.8%) n (%)
  Weight loss (treatment-emergent grade 3/4): 1 (2.4%) n (%)
  decreased appetite requiring dose adjustment or interruption: 5.2%
  development of hypertension, patients: 17%
  diarrhea requiring dose adjustment or interruption: 6.5%
  fatigue requiring dose adjustment or interruption: 7.8%
  hypertension requiring dose adjustment or interruption: 5.2%
  nausea requiring dose adjustment or interruption: 5.2%
  overall rate of grade 3 and 4 toxicities: 53.2%
  photopsia requiring dose adjustment or interruption: 5.2%
  serious adverse events (SAEs), patients: 37.7%
  thrombocytopenia requiring dose adjustment or interruption: 3.9%
  vitreous floaters requiring dose adjustment or interruption: 5.2%
  vitreous floaters, treatment-related adverse effect, patients: 27%
[1]; human, in vivo, 28 days
  patients with dose-limiting toxicities: 6 patients
[1]; once daily given continuously (dose level 6)
  maximum tolerated dose (MTD): 48 mg
[2]; BRAF WT disease, C1D15, 1 of 29
  PMR, patients: 3.4%
[2]; BRAF mutant tumors, C1D15, 8 of 33
  PMR, patients: 24.2%
[2]; BRAF-WT disease, C1D28, 3 of 28
  PMR, patients: 10.7%
[2]; BRAF-mutant tumors, C1D28, 8 of 28
  PMR, patients: 28.6%
[2]; C1D15, 10 of 65
  partial metabolic response (PMR), patients: 15.4%
[2]; C1D15, 65 patients
  progressive metabolic disease (PMD), patients: 13.8%
  stable metabolic disease (SMD), patients: 70.8%
[2]; C1D28, 58 evaluable patients, all dose levels
  partial metabolic response (PMR), patients: 20.7%
[2]; C1D28, 58 patients
  progressive metabolic disease (PMD), patients: 17.2%
  stable metabolic disease (SMD), patients: 62.1%
[2]; in vivo
  patients with RECIST-defined responses who also had partial metabolic response: Five of eight
Ki-67; All patients, n 23
  Ki67 % change vs pretreatment, Mean (SD): -13.46 (50) %
  Ki67 % change vs pretreatment, Median: -11.1%
Ki-67; DL 5, n 2
  Ki67 % change vs pretreatment, Mean (SD): 0%
  Ki67 % change vs pretreatment, Median: 0%
Ki-67; DL 6
  Ki67 decrease: up to 51.8%
Ki-67; DL 6, n 6
  Ki67 % change vs pretreatment, Mean (SD): -47.93 (40.8) %
  Ki67 % change vs pretreatment, Median: -51.8%
Ki-67; DLs 1 - 4, n 11
  Ki67 % change vs pretreatment, Mean (SD): +0.21 (59) %
  Ki67 % change vs pretreatment, Median: -11.1%
Ki-67; DLs 7 and 7.1, n 4
  Ki67 % change vs pretreatment, Mean (SD): -6.08 (20) %
  Ki67 % change vs pretreatment, Median: -2.6%
[3]
  sVEGFR-2 levels: significant decrease
